Counter-ions that a name gives are not always drawn.
Molecular target: monoamine oxidase (MAO)
Assay: MAO inhibition in vitro (brain)
Type: biochemical
Conditions: rat brain homogenate, 14C-5-HT or 14C-PEA as substrate (which one not given), pH 7.4, 37° C., 30 min pre-incubation, 10 min incubation
Method: The MAO inhibiting activity of the compounds in accordance with the invention can be determined using standard methods.
The preparations to be tested were investigated in the in vitro test described hereinafter, which was based on the method of R. J. Wurtmann and J. A. Axelrod [Biochem. Pharmac. 12, 1439-41 (1963).
Isolated rat brains are homogenized in 0.1 molar potassium phosphate buffer (pH 7.4) in the ratio 1:9 (weight/volume), whereupon the homogenate is diluted with the same buffer in the ratio 1:4 (volume/volume) and stored at -20° C. A mixture of the following composition is used for the incubation:
100 μl of 1M phosphate buffer (pH 7.4);
100 μl of solubilizate of the substance to be tested in water or in aqueous dimethyl sulfoxide;
50 μl of rat brain homogenate; and as the substrate
50 μl of ^14 C-labelled serotonin (5-HT) or ^14 C-phenylethylamine (PEA), in each instance 100,000 decay per minute, corresponding to a final concentration of 2·10^-4 mol/l and, respectively, 2·10^-5 mol/l.
A pre-incubation at 37° C. is effected for 30 minutes prior to the addition of the substrate. The incubation (in the presence of the substrate) is likewise effected at 37° C. and lasts for 10 minutes. The reaction is stopped by the addition of 200 μl of 2N hydrochloric acid. In order to extract the deaminated product, the mixture is shaken for 10 minutes with 5 ml of diethyl ether or with 5 ml of n-heptane depending on whether 5-HT or PEA is used as the substrate, whereupon the mixture is centrifuged, the aqueous phase is frozen in a dry-ice bath and the organic phase is transferred into a counting glass.
The activity of the MAO in comparison to the control homogenates is determined on the basis of the β-counter values.
Under the above test conditions the activity is linear with respect to time and to the concentration of the homogenizate. The IC50 values were determined graphically as a log of the concentration-activity curve. The IC50 was defined as that concentration of a substance to be tested which reduces the activity of the MAO upon the substrate 5-HT or PEA by 50%.

COCC1CN(c2ccc([C@H]3CC[C@H](OC(C)=O)CC3)cc2)C(=O)O1 (mixture of isomers) [Example 33, Acetic acid (RS)-trans-4-[4-(5-methoxymethyl-2-oxo-oxazolidin-3-yl)-phenyl]-cyclohexylester]
IC50: 10 nM

COCC1CN(c2ccc([C@H]3CC[C@H](OC)CC3)cc2)C(=O)O1 (stereo partly drawn) [Example 16]
IC50: 6 nM

COC[C@H]1CN(c2ccc([C@H]3CC[C@H](OCC#N)CC3)cc2)C(=O)O1 [Example 63, (R)-[trans-4-[4-(5-Methoxymethyl-2-oxo-oxazolidin-3-yl)-phenyl]-cyclohexyloxy]-acetonitrile]
IC50: 1.6 nM

COC[C@H]1CN(c2ccc([C@H]3CC[C@H](CC#N)CC3)cc2)C(=O)O1 [Example 50]
IC50: 1 nM

COC[C@H]1CN(c2ccc(C3CCC(=O)CC3)cc2)C(=O)O1 [Example 14, (R)-3-[4-(4-Oxo-cyclohexyl)-phenyl]-5-methoxymethyl-oxazolidin-2-one]
IC50: 1 nM

COCC1CN(c2ccc(C3CCN(C(=O)/C=C/c4ccccc4)CC3)cc2)C(=O)O1 (racemic) [Example 59, (RS)-4-[4-(5-Methoxymethyl-2-oxo-oxazolidin-3-yl)-phenyl]-1-(1-oxo-3-phenyl-2,(E)-propenyl)-piperidine]
IC50: 10 nM

COCC1CN(c2ccc([C@H]3CC[C@H](O)CC3)cc2)C(=O)O1 (mixture of isomers) [Example 8, (RS)-3-[4(trans-4-Hydroxy-cyclohexyl)-phenyl]-5-methoxymethyl-oxazolidin-2-one]
IC50: 8.4 nM

COC[C@H]1CN(c2ccc(C3CCCCC3)cc2)C(=O)O1 [Example 6, (R)-3-(4-Cyclohexyl-phenyl)-5-methoxymethyl-oxazolidin-2-one]
IC50: 0.1 nM

COC[C@H]1CN(c2ccc(OCC[C@@H](O)C(F)(F)F)cc2)C(=O)O1 [Befloxaton, reference compound]
IC50: 1.9 nM

COC[C@H]1CN(c2ccc([C@H]3CC[C@H](OCCCN)CC3)cc2)C(=O)O1 [Example 71, (R)-3-[trans-4-(3-Amino-propoxy)-cyclohexyl]-phenyl]-5-methoxymethyl-oxazolidin-2-one hydrochloride]
IC50: 33 nM

COCC1CN(c2ccc([C@H]3CC[C@H](OCC#N)CC3)cc2)C(=O)O1 (mixture of isomers) [Example 66, (RS)-[trans-4-[4-(5-Methoxymethyl-2-oxo-oxazolidin-3-yl)-phenyl]-cyclohexyloxy]-acetonitrile]
IC50: 2 nM

COCC1CN(c2ccc(C3CCC(CO)CC3)cc2)C(=O)O1 (racemic) [Example 38, (RS)-3-[4-(Cis- and trans-4-Hydroxymethyl-cyclohexyl)-phenyl]-5-methoxymethyl-oxazolidin-2-one]
IC50: 3 nM

O=C1OC(CO)CN1c1ccc(C2CCCCC2)cc1 (racemic) [Example 1, (RS)-3-(4-Cyclohexyl-phenyl)-5-hydroxymethyl-oxazolidin-2-one]
IC50: 8.5 nM

COCC1CN(c2ccc(C3CCCCC3)cc2)C(=O)O1 (racemic) [Example 2, (RS)-3-(4-Cyclohexyl-phenyl)-5-methoxymethyl-oxazolidin-2-one]
IC50: 2 nM

COCC1CN(c2ccc([C@H]3CC[C@H](OCCC#N)CC3)cc2)C(=O)O1 (mixture of isomers) [Example 30, (RS)-3-[trans-4-[4-(5-Methoxymethyl-2-oxo-Oxazolidin-3-yl)-phenyl]cyclohexyloxy]-propionitrile]
IC50: 5 nM

COC[C@H]1CN(c2ccc([C@H]3CC[C@H](O)CC3)cc2)C(=O)O1 [Example 15, (R)-3-[4-(trans-4-Hydroxy-cyclohexyl)-phenyl]-5-methoxymethyl-oxazolidin-2-one]
IC50: 8.5 nM

COCC1CN(c2ccc([C@H]3CC[C@H](CC#N)CC3)cc2)C(=O)O1 (mixture of isomers) [Example 49, (RS)-[trans-4-[4-(5-Methoxymethyl-2-oxo-oxazolidin-3-yl)-phenyl]-cyclohexyl]-acetonitrile]
IC50: 0.9 nM

COCC1CN(c2ccc(C3CC4C=CC3C4)cc2)C(=O)O1 (stereo not drawn) [Example 18, 3-[(1RS,2SR,4RS)-4-Bicyclo[2.2.1]hept-5-en-2-yl-phenyl]-5-methoxymethyl-oxazolidin-2-one (R:S=1:1)]
IC50: 9 nM

COCC1CN(c2ccc(C3CCC(C)(O)CC3)cc2)C(=O)O1 (stereo not drawn) [Example 39, (RS)-3-[4-(cis or trans-4-Hydroxy-4-methyl-cyclohexyl)-phenyl]-5-methoxymethyl-oxazolidin-2-one]
IC50: 4 nM

COCC1CN(c2ccc([C@H]3CC[C@H](OCCN)CC3)cc2)C(=O)O1 (stereo partly drawn) [Example 68, (RS)-3-[trans-4-[4-(5-Methoxymethyl-2-oxo-oxazolidin-3-yl)-phenyl]-cyclohexyloxy]ethanamine.HCl]
IC50: 74 nM

COCC1CN(c2ccc(C3CCC(=O)CC3)cc2)C(=O)O1 (racemic) [Example 7, (RS)-3-[4-(4-Oxo-cyclohexyl)-phenyl]-5-methoxymethyl-oxazolidin-2-one]
IC50: 10 nM

Reference: patent publication US5574055A, “Oxazolidinone derivatives” (Hoffmann-La Roche Inc., priority 1993, dated 1996)
